Source: patent US7244727B2, “Fused bicyclic nitrogen-containing heterocycles” (Japan Tobacco Inc., priority 2002, dated 2007)

How the values were obtained:
human DGAT1 = biological target: T1, human DGAT1 (Homo sapiens, UniProt O75907); assay: DGAT Scintillation Proximity Assay (SPA) with membranes of insect cells expressing human flagtag DGAT1; type: biochemical; conditions: read-out: hDGAT1 IC50
T1 construct: made in house; host or cells: insect cells (sf9, sf21 or High Five) infected with baculovirus; total cell membranes
T1 sequence (O75907 1-488): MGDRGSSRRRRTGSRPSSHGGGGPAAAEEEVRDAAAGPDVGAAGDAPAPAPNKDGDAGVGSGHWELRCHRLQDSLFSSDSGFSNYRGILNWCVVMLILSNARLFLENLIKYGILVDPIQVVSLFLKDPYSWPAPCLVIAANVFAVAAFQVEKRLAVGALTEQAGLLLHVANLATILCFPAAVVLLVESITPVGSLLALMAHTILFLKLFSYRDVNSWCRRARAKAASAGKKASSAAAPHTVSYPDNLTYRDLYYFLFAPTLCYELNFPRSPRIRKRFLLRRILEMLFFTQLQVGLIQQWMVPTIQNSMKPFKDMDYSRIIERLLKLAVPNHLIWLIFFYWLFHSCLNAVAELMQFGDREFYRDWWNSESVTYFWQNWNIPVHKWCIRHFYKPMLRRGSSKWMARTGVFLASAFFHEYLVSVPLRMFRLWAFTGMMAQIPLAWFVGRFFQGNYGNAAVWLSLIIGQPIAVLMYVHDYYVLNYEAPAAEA
Procedure, shortened: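 Membranes (0.2 μg/well) from insect cells expressing human flag-tagged DGAT1 incubated with 10 μM compound and 200 μM dioleoyl glycerol substrate; mercuric chloride as inhibition control. Reaction stopped with WGA SPA beads in mercuric chloride, overnight bead coupling, then scintillation proximity signal read.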

Molecule `CC1(C)Oc2ncnc(N)c2N=C1c1ccc([C@H]2CC[C@H](CN[C@H]3CC[C@H](O)CC3)CC2)cc1` [Example 2-116] has an IC50 (human DGAT1) of 10 to 100 nM and a melting point greater than 250 °C.

For `CC1(C)Oc2nccc(N)c2N=C1c1ccc([C@H]2CC[C@H](CC(=O)O)CC2)cc1` [Example 2-117], the IC50 (human DGAT1) was 10 to 100 nM and the melting point was greater than 250 °C.

For `Cc1ncc(C[C@H]2CC[C@H](c3ccc(C4=Nc5c(N)ncnc5OC4(C)C)cc3)CC2)s1` [Example 2-118], the IC50 (human DGAT1) was 10 to 100 nM and the melting point was 215 to 216 °C.

In the case of `CC1(C)Oc2ncnc(N)c2N=C1c1ccc([C@H]2CC[C@H](Cc3cnc(C(C)(C)C)[nH]3)CC2)cc1` [Example 2-119], the IC50 (human DGAT1) is reported as 10 to 100 nM and the melting point is reported as greater than 250 °C.

In the case of `CC1(C)Oc2ncnc(N)c2N=C1c1ccc([C@H]2CC[C@H](Cc3cnc(C4CC4)[nH]3)CC2)cc1` [Example 2-120], the IC50 (human DGAT1) is reported as 10 to 100 nM and the melting point is reported as 226 to 227 °C.

For `CC1(C)Oc2ncnc(N)c2N=C1c1ccc([C@H]2CC[C@H](Cc3nc4cc(Cl)ccc4[nH]3)CC2)cc1` [Example 2-122], the IC50 (human DGAT1) was 10 to 100 nM and the melting point was greater than 230 °C.

Work on `CC1(C)Oc2ncnc(N)c2N=C1c1ccc([C@H]2CC[C@H](Cc3cnc(-c4ccccc4)[nH]3)CC2)cc1` [Example 2-123] yielded an IC50 (human DGAT1) of 10 to 100 nM and a melting point of 230 to 231 °C.

With `CC1(C)Oc2ncnc(N)c2N=C1c1ccc([C@H]2CC[C@H](Cc3nc4cc(F)ccc4[nH]3)CC2)cc1` [Example 2-124] the IC50 (human DGAT1) was 10 to 100 nM and the melting point was greater than 230 °C.

In the case of `CC1(C)Oc2ncnc(N)c2N=C1c1ccc([C@@H]2CCC[C@H](CC(=O)O)C2)cc1` [Example 2-126], the IC50 (human DGAT1) is reported as 10 to 100 nM and the melting point is reported as 234 to 235 °C.

With `Cc1csc(NC[C@H]2CC[C@H](c3ccc(C4=Nc5c(N)ncnc5OC4(C)C)cc3)CC2)n1` [Example 2-127] the IC50 (human DGAT1) was 10 to 100 nM and the melting point was 228 to 230 °C.

For `CC(=O)NC[C@H]1CC[C@H](c2ccc(C3=Nc4c(N)ncnc4OC3(C)C)cc2)CC1` [Example 2-128], the IC50 (human DGAT1) was 10 to 100 nM and the melting point was 253 to 254 °C.

With `Cc1ccc(S(=O)(=O)NC[C@H]2CC[C@H](c3ccc(C4=Nc5c(N)ncnc5OC4(C)C)cc3)CC2)cc1` [Example 2-129] the IC50 (human DGAT1) was 10 to 100 nM and the melting point was 206 to 207 °C.

`CC1(C)Oc2ncnc(N)c2N=C1c1ccc([C@H]2CC[C@H](CNS(N)(=O)=O)CC2)cc1` [Example 2-130] gave an IC50 (human DGAT1) of 10 to 100 nM and a melting point of 226 to 227 °C.

`CC1(C)Oc2ncnc(N)c2N=C1c1ccc([C@H]2CC[C@H](CNC(=O)[C@@H]3CCCN3)CC2)cc1` [Example 2-131] showed an IC50 (human DGAT1) of 10 to 100 nM and a melting point of 230 to 231 °C.

Work on `CC1(C)Oc2ncnc(N)c2N=C1c1ccc([C@H]2CC[C@H](CNC(=O)[C@@H]3C[C@@H](O)CN3)CC2)cc1` [Example 2-132] yielded an IC50 (human DGAT1) of 10 to 100 nM and a melting point of 217 to 218 °C.

Work on `Cc1nc(N)c2c(n1)OC(C)(C)C(c1ccc([C@H]3CC[C@H](CC(=O)NS(C)(=O)=O)CC3)cc1)=N2` [Example 2-134] yielded an IC50 (human DGAT1) of less than 10 nM and a melting point of 225 to 226 °C.

In the case of `Cc1nc(N)c2c(n1)OC(C)(C)C(c1ccc([C@H]3CC[C@H](CC(=O)NC(C)(C)CO)CC3)cc1)=N2` [Example 2-135], the IC50 (human DGAT1) is reported as 10 to 100 nM and the melting point is reported as 229 to 230 °C.

`Cc1nc(N)c2c(n1)OC(C)(C)C(c1ccc([C@H]3CC[C@H](CC(=O)N4CC(O)C(O)C4)CC3)cc1)=N2` (stereo partly drawn) [Example 2-136] gave an IC50 (human DGAT1) of 10 to 100 nM and a melting point of 210 to 211 °C.

In the case of `Cc1nc(N)c2c(n1)OC(C)(C)C(c1ccc([C@H]3CC[C@H](Cc4nn[nH]n4)CC3)cc1)=N2` [Example 2-137], the IC50 (human DGAT1) is reported as less than 10 nM and the melting point is reported as greater than 250 °C.

In the case of `Cc1nc(N)c2c(n1)OC(C)(C)C(c1ccc([C@H]3CC[C@H](CNC(=O)CO)CC3)cc1)=N2` [Example 2-138], the IC50 (human DGAT1) is reported as 10 to 100 nM and the melting point is reported as 235 to 238 °C.

For `Cc1nc(N)c2c(n1)OC(C)(C)C(c1ccc([C@H]3CC[C@H](CNC(=O)C(C)(C)CO)CC3)cc1)=N2` [Example 2-139], the IC50 (human DGAT1) was 10 to 100 nM and the melting point was 249 to 250 °C.
